Results reported in patent US12391675B2, “NLRP3 modulators” (INNATE TUMOR IMMUNITY, INC., priority 2019, dated 2025).

target: T1, NLRP3 (Homo sapiens, UniProt Q96P20); assay: Measurement of IL-1β production in PMA-differentiated THP-1 cells (NLRP3 hIL1B EC50); assay type: cell-based
T1 construct: host or cells: PMA-differentiated THP-1 cells
Protocol: Measurement of IL-1β Production in PMA-Differentiated THP-1 Cells
THP-1 cells were purchased from the American Type Culture Collection and sub-cultured according to instructions from the supplier. Prior to experiments, cells were cultured in RPMI 1640 containing 10% heat inactivated FBS, penicillin (100 units/ml) and streptomycin (100 μg/ml), and maintained in log phase prior to experimental setup. Prior to the experiment THP-1 were treated with PMA (Phorbol 12-myristate 13-acetate) (10 μg/ml) for 24 hours. The day of the experiment the media was removed and attaching cells were treated with trypsin for 2 minutes, cells were then collected, washed with PBS (phosphate buffer saline), spin down, resuspended in 2% heat inactivated FBS with RPMI at a concentration of 1×10^6 cells/ml, and 100 μl was plated in a 96 well plate. Compounds were dissolved in dimethyl sulfoxide (DMSO) and added to the culture medium to achieve desired concentration (e.g. 100, 30, 10, 3, 1, 0.3 or 0.1 μM). Cells were incubated with compounds for 4 hours. Cell free supernatant was collected and the production of IL-1β was evaluated by ELISA. A vehicle only control was run concurrently with each experiment. Final DMSO concentration was 1%.
Measurement of IL-1β Production in PMA-Differentiated THP-1 Cells (Alternative Procedure)
THP-1 cells were purchased from the American Type Culture Collection and sub-cultured according to instructions from the supplier. Prior to experiments, cells were cultured in RPMI 1640 containing 10% heat inactivated FBS, penicillin (100 units/ml), streptomycin (100 μg/ml), HEPES (10 mM) and sodium pyruvate (1 mM) and maintained in log phase prior to experimental setup. Prior to the experiment, THP-1 cells were treated with PMA (Phorbol 12-myristate 13-acetate) (20 μg/ml) overnight. The day of the experiment, the media was removed and attached cells were treated with trypsin for 2 minutes, cells were then collected, washed with PBS (phosphate buffer saline), pelleted by centrifugation and resuspended in 2% heat inactivated FBS with RPMI at a concentration of 50,000 cells/well in a 384 well plate. Cell free supernatant was collected and the production of IL-1β was evaluated by ELISA. Compounds were dissolved in dimethyl sulfoxide (DMSO) and added to the culture medium to achieve desired concentration (e.g. 100, 30, 10, 3, 1, 0.3 or 0.1 μM). Cells were incubated with compounds for 2 hours. A vehicle only control was run concurrently with each experiment. Final DMSO concentration was 1%.
Measurement of IL-1β Production—hTRF Protocol (Second Alternative Procedure)
Serial dilutions of compounds in DMSO were added to low volume 384 well plates at 100 nl/well using an ECHO 550 acoustic dispenser (Labcyte) to achieve final starting concentration of 10 μM in assay.
THP-1 cells in RPMI (Gibco, 11875) media with 10% FBS at a density of 1×10^6 cell/ml in a T175 flask were treated with a final concentration of phorbol 12-myristate 13-acetate (PMA) (Sigma, P1585) of 50 ng/ml overnight at 37° C. at 5% CO2 for differentiation. Cells were harvested the next day after rinsing well wth dPBS using 0.5% trypsin. A cell solution was prepared of 1×10^6 cells/ml for 50,000 cells in 50 μl/well in RPMI media with 2% FBS. Cells were plated using a multichannel pipette onto the compound dilutions in Greiner, 384 well, black clear bottom tissue culture treated plates (781090). The plates were incubated in 37° C. incubator at 5% CO2 for 2 hours.
After the 2 hour incubation, the cell plates were spun in the centrifuge for 5 minutes at 1200 rpm. Using the Felix (CyBio), 8 μl of the supernatant was transferred to 384 well, low volume, white proxy plates. (Perkin Elmer, 6008230). A human IL1beta hTRF kit was used to analyze the supernatant (CISBIO, 62HIL1BPEG). The kit instructions were followed for preparing the IL1Beta standard curve and then the antibodies from the kit were diluted 1:40 rather than 1:20 as kit instructed. […]

T1 sequence (Q96P20 whole entry): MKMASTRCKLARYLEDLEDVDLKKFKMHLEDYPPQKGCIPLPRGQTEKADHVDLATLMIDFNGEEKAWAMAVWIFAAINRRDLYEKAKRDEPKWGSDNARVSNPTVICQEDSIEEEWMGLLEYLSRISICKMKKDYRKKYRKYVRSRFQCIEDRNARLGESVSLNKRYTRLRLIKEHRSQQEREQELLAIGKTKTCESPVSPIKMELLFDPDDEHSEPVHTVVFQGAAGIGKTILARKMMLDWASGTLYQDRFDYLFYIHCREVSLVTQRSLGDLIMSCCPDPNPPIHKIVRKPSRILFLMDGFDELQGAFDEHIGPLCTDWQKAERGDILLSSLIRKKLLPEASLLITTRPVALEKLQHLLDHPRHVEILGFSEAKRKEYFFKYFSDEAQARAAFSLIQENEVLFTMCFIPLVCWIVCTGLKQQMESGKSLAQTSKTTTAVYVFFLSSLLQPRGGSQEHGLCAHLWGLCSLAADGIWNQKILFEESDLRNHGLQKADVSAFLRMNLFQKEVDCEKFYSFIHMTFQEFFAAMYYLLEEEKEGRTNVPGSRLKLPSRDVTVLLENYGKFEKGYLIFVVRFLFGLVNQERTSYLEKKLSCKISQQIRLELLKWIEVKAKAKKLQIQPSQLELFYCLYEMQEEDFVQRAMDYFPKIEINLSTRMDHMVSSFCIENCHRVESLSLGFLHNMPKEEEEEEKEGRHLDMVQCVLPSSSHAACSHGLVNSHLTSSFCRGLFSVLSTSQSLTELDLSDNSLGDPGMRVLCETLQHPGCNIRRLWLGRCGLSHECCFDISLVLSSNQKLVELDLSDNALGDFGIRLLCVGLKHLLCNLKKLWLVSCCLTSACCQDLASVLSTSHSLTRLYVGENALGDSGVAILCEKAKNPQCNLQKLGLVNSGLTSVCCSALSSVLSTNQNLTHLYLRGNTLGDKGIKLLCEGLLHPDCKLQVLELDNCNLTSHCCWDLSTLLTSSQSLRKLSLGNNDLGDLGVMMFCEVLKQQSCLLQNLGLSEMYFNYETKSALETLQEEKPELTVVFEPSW

Compound | EC50
Nc1cc(N[C@H]2C3CCC(C3)[C@H]2CO)c2ccc(-c3ccn[nH]3)cc2n1 (single isomer, unassigned) [Example 18] | 3000 nM
COC(=O)C12CCC(CNc3cc(N)nc4cc(-c5cc[nH]n5)ccc34)(CC1)CC2 [Example 50, methyl 4-(((2-amino-7-(1H-pyrazol-3-yl)quinolin-4-yl)amino)methyl)bicyclo[2.2.2]octane-1-carboxylate] | 1730 nM
Nc1nc(N2C3CCC2COC3)c2ccc(-c3cc[nH]n3)cc2n1 [Example 12] | 640 nM
Nc1cc(NC2CC3(CC(O)C3)C2)c2ccc(-c3ccn[nH]3)cc2n1 (single isomer, unassigned) [Example 26B, (Ra)-6-(2-amino-7-(1H-pyrazol-5-yl)quinolin-4-ylamino)spiro[3.3]heptan-2-ol] | 250 nM
Nc1cc(N2C3CCC2COC3)c2ccc(-c3ccn[nH]3)cc2n1 [Example 22] | 2000 nM
Nc1cc(OCC23CCC(CC2)OC3)c2ccc(-c3cc[nH]n3)cc2n1 [Example 47, 4-((2-oxabicyclo[2.2.2]octan-4-yl)methoxy)-7-(1H-pyrazol-3-yl)quinolin-2-amine] | 320 nM
Nc1nc(NC23CC4CC(CC(O)(C4)C2)C3)c2ccc(-c3cc[nH]n3)cc2n1 [Example 11, (1s,3r,5R,7S)-3-((2-Amino-7-(1H-pyrazol-3-yl)quinazolin-4-yl)amino)adamantan-1-ol] | 2110 nM
Nc1nc(N[C@@H]2[C@@H]3COC[C@@H]32)c2ccc(-c3ccn[nH]3)cc2n1 [Example 6] | 310 nM
Nc1nc(NC2CC3(CC3)C2)c2ccc(-c3cc[nH]n3)cc2n1 [Example 37] | 300 nM
Nc1nc(NC23CC(C2)C3)c2ccc(-c3cc[nH]n3)cc2n1 [Example 13] | 200 nM
Nc1cc(NC2COCCC23OCCO3)c2ccc(-c3cc[nH]n3)cc2n1 (stereo not drawn) [Example 33, 7-(1H-pyrazol-3-yl)-N4-(1,4,8-trioxaspiro[4.5]decan-6-yl)quinoline-2,4-diamine] | 17400 nM
Nc1cc(N[C@H]2[C@@H]3CC[C@@H](C3)[C@H]2CO)c2ccc(-c3ccn[nH]3)cc2n1 (racemic) [Example 17, rac-((1R,2S,3R,4S)-3-((2-amino-7-(1H-pyrazol-5-yl)quinolin-4-yl)amino)bicyclo[2.2.1]heptan-2-yl)methanol] | 1670 nM
Nc1nc(N[C@@H]2C[C@H]3C[C@@H](O)C[C@H]3C2)c2ccc(-c3ccn[nH]3)cc2n1 [Example 2, (2r,3aR,5r,6aS)-5-((2-amino-7-(1H-pyrazol-5-yl)quinazolin-4-yl)amino)octahydropentalen-2-ol] | 600 nM
Nc1cc(NCC23CCC(CC2)OC3)c2ccc(-c3cc[nH]n3)cc2n1 [Example 48, N4-((2-oxabicyclo[2.2.2]octan-4-yl)methyl)-7-(1H-pyrazol-3-yl)quinoline-2,4-diamine] | 570 nM

Continued, values first:

EC50 | Compound
2120 nM | Nc1nc(N[C@H]2C[C@@H]3C[C@H]2[C@@H](O)C3)c2ccc(-c3ccn[nH]3)cc2n1 (single isomer, unassigned) [Example 45A]
3700 nM | Nc1nc(N[C@@H]2C[C@H]3CC[C@]2(CO)O3)c2ccc(-c3ccn[nH]3)cc2n1 (racemic) [Example 8]
980 nM | Nc1cc(NCC23CC(CO)(C2)C3)c2ccc(-c3ccn[nH]3)cc2n1 [Example 52, (3-(((2-amino-7-(1H-pyrazol-5-yl)quinolin-4-yl)amino)methyl)bicyclo[1.1.1]pentan-1-yl)methanol]
1640 nM | Nc1nc(N[C@H]2C[C@@H]3C[C@H]2C[C@H]3O)c2ccc(-c3ccn[nH]3)cc2n1 (single isomer, unassigned) [Example 43A]
1110 nM | Nc1nc(N[C@H]2C[C@@H]3C[C@H]2C[C@H]3O)c2ccc(-c3ccn[nH]3)cc2n1 (single isomer, unassigned) [Example 43B]
200 nM | Nc1nc(NC23CC(CO)(C2)C3)c2ccc(-c3ccn[nH]3)cc2n1 [Example 7]
810 nM | Nc1nc(NC2C3CCC(C3)C2CO)c2ccc(-c3ccn[nH]3)cc2n1 (stereo not drawn) [Example 5]
